In brackets after ≈: the same amount, converted by molar mass. Read-outs that look alike come from different tables or passages of the source. Non-standard residues stand in square brackets, D forms with d. Residues, ends and D or L forms follow the SMILES beside them. d1Nal = N[C@H](Cc1cccc2ccccc12)C(=O)O
Legend:
[1] = Additional studies: intravenous administration safety; type: in vivo; settings: intravenously
Procedure: In additional studies in an acute peritonitis model, mice were challenged intraperitoneally with 1.4×10^7 CFU E. coli 07:K1 and treated intraperitoneally with XMP.629 at 1, 3, or 10 mg/kg or saline. Mice were observed twice daily and mortality was recorded for seven days. Statistical comparisons between the treatment groups and saline were performed using a Chi Square test. […] At 10 mg/kg, 87% protection was observed. In additional studies, XMP.629 was safely administered at a dose of 20 mg/kg intravenously.

P. acnes = settings: each strain: UPC686, ATCC 6919 intermediate-erythromycin, UP2022
P. acnes (ATCC 6919) = assay: Post-antibiotic effect (PAE) study; type: cell-based, Propionibacterium acnes
Procedure: Post-antibiotic effect (PAE) studies with XMP.629 were conducted according to the procedure described by Craig, W. and S. Gudmundsson, “Postantibiotic Effect,” p. 296, In: Lorian, V. (ed.) Antibiotics in Laboratory Medicine, 4th ed. The post antibiotic effect measures the duration that an antibiotic affects target organisms after contact with the bacteria. In this study, an initial concentration of 5×10^6 CFU/mL P. acnes (ATCC 6919) and 1 μg/mL were incubated for 15, 30, or 60 minutes and then diluted 100-fold in BHI. The treated organisms and matched untreated controls were incubated for […]. Samples were taken and counted at hourly intervals. Recovery was determined by plate counts over time.
The postantibiotic value is the difference in time between the controls and treated cultures to increase 1 log10. Because of the long generation time (slow growth) of the organism, the recovery time was unusually long, >12 hours. This may have influenced the results as typical assays are completed within 5-6 hours.

Hanford minipigs = assay: Minipig subchronic dermal toxicity test with toxicokinetics; type: in vivo; settings: one 70 μg/kg/day female
Procedure: XMP.629 was evaluated for potential toxicity when administered by a single daily dermal application to Hanford minipigs over the course of one month. The study group design and dosage levels tested were as follows:
The test article or placebo control was administered once daily to the dorsal surface of each animal for 29 consecutive days. General health, mortality and moribundity checks were conducted twice daily. General health examinations were performed by a veterinarian once prior to in-life initiation and weekly during the study. The animals were examined daily for overt toxic signs (post-dose observations) between one and two hours following dosing. Detailed clinical observations and individual body weights were performed weekly, beginning on study day 0, and on the day of scheduled euthanasia. Dermal scoring was performed once per week and on the day of scheduled euthanasia.
Hematology, coagulation and clinical chemistry parameters were evaluated once prior to in-life initiation (day -9) and near the conclusion of the dosing phase (day 26). Blood samples were also collected for anti-test article analyses on study day 26 and toxicokinetic (TK) analyses on study days 0 and 27. Ophthalmological examinations were performed once prior to in-life initiation and just prior to the end of the dosing phase. […]

[2] = 72 hours following dosing
[3] = test system: CD [Crl:CD (SD)IGS BR] rats; assay: Rat subchronic toxicity test, subcutaneous, 30 days; type: in vivo
Procedure: XMP.629 was evaluated for potential subchronic dose toxicity after at least 30 consecutive days of administration to CD®[CrI: CD® (SD)IGS BR] rats. This study consisted of four main study groups, each containing ten rats/sex/group, and four toxicokinetic (TK) groups each containing six rats/sex/group. Three of the four main study and TK groups received XMP.629 by bolus subcutaneous injection at dose levels of 0.3, 1.0, and 3.0 mg/kg/day and at a dose volume of 3.0 mL/kg. One main study and TK group each served as control groups and received a vehicle (saline/sodium acetate buffer, pH 6.0) at the same dose volume. The TK groups were used for the assessment of plasma XMP.629 concentrations and to evaluate potential effects from repeat-dose administration of XMP.629 on antibody formation in a standardized assay. Blood was collected for plasma analysis on Days 1 and 28. […]
All rats were observed twice daily for morbidity, mortality, injury, and availability of food and water. Body weights were measured pretest and weekly for all rats and observations for clinical signs and measurements for food consumption were conducted weekly during the course of the study on main study rats. […] At the end of the treatment period for the main study rats, various hematology, clinical chemistry, and urinalysis parameters were evaluated. […]

[4] = test system: E. coli 0111 :B4 lipopolysaccharide challenge in CD-1 mice; assay: Murine model of endotoxemia (survival); type: in vivo; settings: 0.65 mg/kg intravenously; 25 mg/kg LPS; seven days
Procedure: This example addresses studies relating to additional activities of XMP.629, including its known endotoxin-related activities. […] For these studies, groups of 15 male CD-1 mice were challenged with 25 mg/kg E. coli 0111 :B4 lipopolysaccharide via tail vein injection. Immediately following endotoxin challenge, mice were treated intravenously with XMP.629 at 0.07, 0.2, 0.65 mg/kg or saline. Animals were observed twice daily and mortality was recorded for seven days.

[5] = [3H]-labeled XMP.629, 0.3 mg/kg intravenous, estimate

CC(C)C[C@@H](NC(=O)[C@H](N)CCCCN)C(=O)N[C@H](Cc1ccccc1)C(=O)N[C@H](CCCNC(=N)N)C(=O)N[C@H](Cc1cccc2ccccc12)C(=O)N[C@H](CCC(N)=O)C(=O)N[C@H](C)C(=O)N[C@H](CCCCN)C(=O)N[C@H](Cc1cccc2ccccc12)C(N)=O [XMP.629, NH2-lys-leu-phe-arg-(3-(1-naphthyl)-ala)-gln-ala-lys-(3-(1-naphthyl)-ala)-CONH2] (H-[dK][dL][dF][dR][d1Nal][dQ][dA][dK][d1Nal]-NH2)
dose safely administered [1]: 20 mg/kg | MBC (P. acnes): 1 µg/mL (≈ 0.779 µM) | Minimum Inhibitory Concentrations (Pseudomonas aeruginosa; Pseudomonas aeruginosa 9027): 8.00 µg/mL | Minimum Inhibitory Concentrations (Pseudomonas aeruginosa; Pseudomonas aeruginosa 19660): 8.00 µg/mL | Minimum Inhibitory Concentrations (Pseudomonas aeruginosa; Pseudomonas aeruginosa 27853): 4.00 µg/mL | Minimum Inhibitory Concentrations (Pseudomonas aeruginosa; Pseudomonas aeruginosa XS-65 (MDR)): 8.00 µg/mL | PAE value (P. acnes (ATCC 6919); 1 μg/mL, contact 30 or 60 minutes, accurate value could not be assigned): ≥ 12 h | recovery of affected cells (P. acnes (ATCC 6919); exposure to 0.5 to 2.0 MBCs for 15 minutes): did not recover, even after 24 hours of incubation | duration of continuing inhibitory, but not lethal, effect after contact (P. acnes (ATCC 6919); residence time greater than 15 minutes): more than 5 hours | Dermal observations (Hanford minipigs): single incidence of grade 2 (well defined) erythema | radioactivity remained in the body (carcass) [2]: 79.7% | main finding ([3]; 0.3, 1.0, and 3.0 mg/kg/day subcutaneous for 30 days): injection site lesions | no-observed-effect level (NOEL) for systemic effects ([3]; subcutaneous, 30 days): greater than 3.0 mg/kg/day | survival in endotoxin-challenged mice [4]: complete protection | CL (clearance) ([5]; male Sprague-Dawley rats, three compartment model): 358.7 g plasma/hr/kg | C0 (extrapolated plasma concentration at time 0) ([5]; rat): 2.49 μg equivalents/g | Vc (volume of distribution of the central compartment) ([5]; rat): 0.121 L/kg | Vss (volume of distribution at steady state) ([5]; rat): 1.657 L/kg | t1/2 (average half-life) ([5]; rat): 13.8 min | t1/2α (α half-life) ([5]; rat): 1.92 min | t1/2β (β half-life) ([5]; rat): 46.2 min | t1/2γ (γ half-life) ([5]; rat): 498 min
